Holding throughout (experiment): NCI anticancer screen, dose series, 48 h
Assay [1] concerns M19-MEL.
Assay [2] relates to KM-20L2.
Assay [3] concerns DLD-1.
The subject of assay [4] is XF498.
The subject of assay [5] is SNB-78.
Assay [6] has as its system DMS-114.
Assay [7] relates to DMS-273.
The subject of assay [8] is HOP-18.
Assay [9] relates to RXF 631.

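Results reflect a 48-hour exposure of cells in 96-well plates to compound at five concentrations. GI50 marks 50% less growth.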 Active and inactive are the calls of the source. Rule as the data show it: active = GI50 up to about 1.1 µM and inactive = higher.

For `CCCCOC(=O)N[C@H]1CCc2cc(OC)c(OC)c(OC)c2-c2ccc(SC)c(=O)cc21`, the GI50 in assay [1], in assay [2], in [3], in [4], in assay [5] and in assay [6] was < 0.01 µM (active) in each case. Moreover, the figures for the GI50 in assay [7] and in [8] were < 0.01 µM (active) and 21.4 µM (inactive), respectively.

For the molecule `CCCCCCCSCC1C(=O)C23C(O)C1CCC2C12COC3(O)C(O)C1C(C)(C)CCC2O` (stereo not drawn), the GI50 in assay [1] was 15.3 µM (inactive); in assay [2], 12 µM (inactive); in [3] it was 14.4 µM (inactive); in [9], 5.04 µM (inactive); in assay [4], 18.5 µM (inactive); in [5], 15.3 µM (inactive). The GI50 is 8.38 µM (inactive) in assay [6], 12.6 µM (inactive) in [7] and 12.5 µM (inactive) in assay [8].

Regarding `C/C(=N/NC(=O)C(N)=O)C(CC(C(=O)Nc1ccccc1C)/C(C)=N\NC(=O)C(N)=O)C(=O)Nc1ccccc1C` (stereo not drawn), the GI50 in assay [1], in assay [2], in assay [3] and in assay [5] was > 100 µM (inactive) in each case.

For `CCCC/C=C1\CCC(C)(CN(C)C)C1=O` (stereo not drawn), the GI50 in assay [1] is 15.6 µM (inactive); in assay [2], > 100 µM (inactive); in assay [3] it was > 10 µM (inactive); in [5], > 100 µM (inactive); in assay [6] it was > 100 µM (inactive); in [8] it was > 100 µM (inactive).

Turning to `CCOc1ccc(NC(=O)CCc2nnc(SC)o2)cc1`, the GI50 in assay [1], in [2], in assay [3], in assay [5], in assay [6] and in assay [7] was > 100 µM (inactive) throughout. In addition, in [8], the GI50 was > 100 µM (inactive).

As for `C=CCCCCCCCCCCCC1CCC(CC)N1` (stereo not drawn), the GI50 in assay [1] was 5.15 µM (inactive); in [2], 4.04 µM (inactive); in assay [3] it was 3.72 µM (inactive); in assay [9], 6.19 µM (inactive); in [5] it was 14.9 µM (inactive); in assay [6], 5 µM (inactive). Moreover, the GI50 in [7] was 2.33 µM (inactive); in assay [8], 12.6 µM (inactive).

Consider `Cc1cc(C)c(C(=O)/C(=C/c2ccccc2)c2ccccc2)c(C)c1`, for which the GI50 in assay [1] is 39.9 µM (inactive); in assay [2], 42.2 µM (inactive); in assay [3], > 100 µM (inactive); in assay [9] it was 29.9 µM (inactive); in assay [4], 19.2 µM (inactive); in [6], 35.6 µM (inactive). In addition, the GI50 in assay [8] is > 100 µM (inactive).

`Cc1c(/N=C\c2ccc(N(CCC#N)CCC#N)cc2)c(=O)n(-c2ccccc2)n1C`: the GI50 was > 100 µM (inactive) in [1]; > 100 µM (inactive) in assay [2]; > 100 µM (inactive) in assay [3]; 28 µM (inactive) in assay [4]; 51.6 µM (inactive) in assay [5]; > 100 µM (inactive) in assay [6]. Further, the GI50 in assay [7] is > 88.5 µM (inactive); in assay [8], 25.2 µM (inactive).

For `Cc1cc(/C=C/c2cc[n+](C)c3ccccc23)c(O)c2ncccc12`, the GI50 in assay [1] is 1.42 µM (inactive); in assay [2], 5.68 µM (inactive); in [3], 3.32 µM (inactive); in assay [5], 4.63 µM (inactive); in [6], 0.214 µM (active); in assay [7], 0.558 µM (active). In addition, in assay [8], the GI50 is 1.36 µM (inactive).

In the case of `CCSC1=CC(Cc2ccc(OC)cc2)N(C(=O)OC)C1` (stereo not drawn), the GI50 in [1] was > 100 µM (inactive); in assay [2], > 100 µM (inactive); in assay [3] it was 81.8 µM (inactive); in assay [9], > 100 µM (inactive); in [4], > 100 µM (inactive); in [5], > 100 µM (inactive). The GI50 is 23.4 µM (inactive) in [6], 70 µM (inactive) in assay [7] and > 100 µM (inactive) in [8].

In the case of `Cc1nc(C)c(C(=O)Nc2cccc3c2C(=O)NC3=O)cc1C(=O)Nc1cccc2c1C(=O)NC2=O`, the GI50 in assay [1], in assay [2], in assay [3], in assay [4], in assay [5] and in assay [6] was > 100 µM (inactive) in each case. Moreover, the GI50 in [7] and in [8] was > 100 µM (inactive) each time.

Turning to `COc1ccc2c(c1)CC[C@@H]1C2CC[C@]2(C)C(=O)NC(=O)CC12` (stereo partly drawn), the GI50 in [1] was > 100 µM (inactive); in assay [2], > 100 µM (inactive); in assay [3] it was > 100 µM (inactive); in [4], > 100 µM (inactive); in assay [5] it was > 100 µM (inactive); in [7] it was 65.8 µM (inactive). Moreover, in [8], the GI50 was 26 µM (inactive).

For the molecule `COC(=O)N/N=C(\C)c1c(O)cc(C)oc1=O`, the GI50 in assay [2] was 22.1 µM (inactive); in [3], 30.1 µM (inactive); in assay [9] it was > 100 µM (inactive); in assay [5] it was > 100 µM (inactive).

On to `CCOc1ccc(/N=C/c2c3ccccc3nc3ccccc23)cc1`, for which the GI50 is > 100 µM (inactive) in assay [1]; 40.2 µM (inactive) in [2]; 24.7 µM (inactive) in assay [3]; > 100 µM (inactive) in assay [9]; 65.6 µM (inactive) in [4]; > 100 µM (inactive) in assay [5]. Further, the GI50 in assay [6] was 25.1 µM (inactive); in [7], 32.4 µM (inactive); in assay [8], > 100 µM (inactive).

As for `S=c1sc2c(S)nc(S)nc2n1-c1ccccc1`, the GI50 was > 100 µM (inactive) in assay [1]; > 100 µM (inactive) in [2]; > 100 µM (inactive) in [3]; > 100 µM (inactive) in assay [4]; > 100 µM (inactive) in assay [5]; 75.5 µM (inactive) in [6]. For the same molecule, the GI50 in assay [7] and in assay [8] was > 100 µM (inactive) in each case.

With `O=C1C2C3C=C4c5ccccc5N(c5ccccc5)C4(C2C(=O)N1c1ccc(Br)cc1)[C@H]1C(=O)N(c2ccc(Br)cc2)C(=O)[C@@H]31` (stereo partly drawn), the GI50 in assay [2], in [3], in assay [4], in assay [5], in assay [7] and in assay [8] was > 100 µM (inactive) each time.

As for `COC(=O)[C@@]12OC[C@]34C([C@@H](O)C1O)[C@@]1(C)CC(=O)C(OC(=O)/C=C(/c5ccccc5)C(F)(F)F)=C(C)C1C[C@H]3OC(=O)[C@H](O)[C@H]42` (stereo partly drawn), the GI50 in [1] was 5.08 µM (inactive); in assay [2], 8.61 µM (inactive); in assay [3], 7.41 µM (inactive); in assay [4], 9.82 µM (inactive); in assay [5], 11.2 µM (inactive); in [6] it was 4.27 µM (inactive). Further, the GI50 was 3.44 µM (inactive) in [7] and 30.1 µM (inactive) in assay [8].

On to `COc1cc2c(cc1OC)C(OC)N(C)c1c-2ccc2cc3c(cc12)OCO3` (stereo not drawn), for which the GI50 in assay [1] is 1.19 µM (inactive); in [2] it was 0.558 µM (active); in [3], 9.68 µM (inactive); in assay [4] it was 0.895 µM (active); in assay [5], 2.67 µM (inactive); in assay [6], 1.17 µM (inactive). For the same molecule, the GI50 in assay [7] was 1.11 µM (active); in assay [8], 21.6 µM (inactive).

Regarding `C=C(C)[C@H]1Cc2c(ccc3c2O[C@@H]2COc4cc(OC)c(OC)cc4[C@@H]2C3=O)O1` [ROTENONE], the GI50 in assay [1] was 0.0559 µM (active); in assay [2], 0.128 µM (active); in assay [3], 0.241 µM (active); in [4], 0.055 µM (active); in [5], 0.456 µM (active); in assay [6] it was < 0.01 µM (active). In addition, in assay [7], the GI50 is 0.0378 µM (active).

Source of the values: ChEMBL document CHEMBL1201862, “PubChem BioAssay data set” (2004).
